For twelve compounds, IC50 and GI50 results are on record in patent publication US20250179059A1 (The Regents of the University of California, priority 2021, published 2025).

Structures are written as SMILES. Where two headings read alike, the source gives them in different places.

The target of assay [1] is T1, human BRD4 bromodomain II (Homo sapiens, UniProt O60885).
T1 construct: human BRD4 bromodomain II [based on Genbank NM_058243, residues 349-460]; host or cells: E. coli
Put plainly: Bromodomain binding assay (AlphaScreen), BRD4 BDII. In short, it runs like this:
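E. coli-expressed N-terminal His6-tagged human BRD4 BDII (residues 349-460) or BDI (residues 44-170) was preincubated 30 min at room temperature with compound (10-point, 3-fold) in pH 7.5 HEPES buffer, 1% DMSO. Displacement of biotinylated tetra-acetylated H4 1-21 peptide was read by AlphaScreen, and IC50 came from curve fitting.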
A general note: In Alpha technology, singlet oxygen from a donor bead excites a nearby acceptor bead.

Assay [2] concerns human SKM-1 acute myeloid leukemia cells. Put plainly: SKM-1 antiproliferation cell-based assay (ATPlite). Conditions: Homo sapiens. In short, it runs like this: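 Log-phase cells in RPMI 1640/15% FBS were seeded at 34722 cells/mL and exposed for 4 days to nine-concentration DMSO serial dilutions in triplicate. Viability was read as ATP luminescence (ATPlite 1step), and IC50 values came from variable-slope non-linear regression.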
On the technique in general: Cellular ATP, detected with luciferase, serves as a proxy for viable cell number.

Setting [3] is: BRD4 BDII AlphaScreen assay, read-out: BRD4 BD2 IC50.
The mark [4] stands for this setting: SKM-1, SKM-1 antiproliferation assay.
Setting [5] is: AlphaScreen assay, Table C2, read-out: BRD4 BDII IC50.
Setting [6] is: SKM-1, 96 h, SKM-1 antiproliferation assay, 4 days, Table C2.

One may read the IC50 as the point on the concentration scale where inhibition reaches its midpoint. By GI50 is commonly meant the concentration at which growth is held to half of that of the control. The low end stands for greater sensitivity of the cells, the high end for lower sensitivity of the cells. Take `Cc1cc(-c2ccc(-n3ccn(C)c3=O)c(Cl)c2)c(O)c(-c2cnc(N)c(N3CCN(C(C)(C)C)CC3)c2)n1` [Example 962, 1-(4-(6′-amino-5′-(4-(tert-butyl)piperazin-1-yl)-3-hydroxy-6-methyl-[2,3′-bipyridin]-4-yl)-2-chlorophenyl)-3-methyl-1H-imidazol-2(3H)-one]: the IC50 in assay [1] (setting [3]) was in the range of 1 to 10 nM. The same compound had a GI50 in assay [2] (setting [4]) of 0.3 to 30 nM.

As to `Cn1cc(-c2cc(F)cc(-c3ccc(-n4ccn(C)c4=O)c(Cl)c3)c2O)cc(N2CCNCC2)c1=O` [Example 437, 5-(3′-chloro-5-fluoro-2-hydroxy-4′-(3-methyl-2-oxo-2,3-dihydro-1H-imidazol-1-yl)-[1,1′-biphenyl]-3-yl)-1-methyl-3-(piperazin-1-yl)pyridin-2(1H)-one], the 50% inhibitory concentration (IC50) in assay [1] (setting [5]) lay in the range of 1 to 10 nM. The same compound had a 50% growth inhibitory concentration (GI50) in assay [2] (setting [6]) of 0.3 to 30 nM.

On to `CN[C@H]1CCCN(c2cc(-c3cc(F)cc(-c4ccc(N5CCN(C)C5=O)c(Cl)c4)c3O)ccn2)C1` [Example 450], for which the IC50 in assay [1] (setting [5]) was 1 to 10 nM. In addition, the GI50 in assay [2] (setting [6]) was in the range of 30 to 300 nM.

For the compound `C[C@@H]1CN(c2cc(-c3cc(Cl)cc(-c4ccc(-n5ccn(C)c5=O)c(Cl)c4)c3O)ccn2)CCN1` [Example 540, (R)-1-(3,5′-dichloro-2′-hydroxy-3′-(2-(3-methylpiperazin-1-yl)pyridin-4-yl)-[1,1′-biphenyl]-4-yl)-3-methyl-1H-imidazol-2(3H)-one], the IC50 in assay [1] (setting [5]) fell in the range of 1 to 10 nM. Besides, in assay [2] (setting [6]), the concentration for 50% growth inhibition (GI50) fell in the range of 0.3 to 30 nM.

On to `CC(C)N1CCC12CCN(c1cccc(-c3cc(F)cc(-c4ccc(-n5ccn(C)c5=O)c(Cl)c4)c3O)c1)C2` (stereo not drawn) [Example 892], for which, in assay [1] (setting [3]), the IC50 is 1 to 10 nM. Also, in assay [2] (setting [4]), the concentration for 50% growth inhibition (GI50) was in the range of 0.3 to 30 nM.

In the case of `Cn1ccn(-c2ccc(-c3cc(F)cc(-c4ccnc(N5CCN(CC(=O)O)CC5)c4)c3O)cc2Cl)c1=O` [Example 521, 2-(4-(4-(3′-chloro-5-fluoro-2-hydroxy-4′-(3-methyl-2-oxo-2,3-dihydro-1H-imidazol-1-yl)-[1,1′-biphenyl]-3-yl)pyridin-2-yl)piperazin-1-yl)acetic acid], the IC50 in assay [1] (setting [5]) was 1 to 10 nM. For the same compound, the 50% growth inhibitory concentration (GI50) in assay [2] (setting [6]) lay in the range of 30 to 300 nM.

Turning to `Cn1ccn(-c2ccc(-c3cc(F)cc(-c4ccccc4CN4CCNCC4)c3O)cc2Cl)c1=O` [Example 889], the half-inhibitory concentration (IC50) in assay [1] (setting [3]) is over 100 nM. In assay [2] (setting [4]), this compound had a GI50 of 300 to 3000 nM.

As for `CC(=O)Nc1ccc(-c2cccc(-c3ccc(F)c(N4CCNCC4)c3)c2O)cc1F` [Example 182, N-(3,4″-difluoro-2′-hydroxy-3(piperazin-1-yl)-[1,1′:3′,1″-terphenyl]-4-yl)acetamide], the IC50 in assay [1] (setting [5]) fell in the range of 1 to 10 nM. In assay [2] (setting [6]), this compound registered a concentration for 50% growth inhibition (GI50) of 300 to 3000 nM.

`Cn1ccn(-c2ccc(-c3cc(F)cc(-c4ccnc(N5CCCNCC5)c4)c3O)cc2Cl)c1=O` [Example 623, 1-(3′-(2-(1,4-diazepan-1-yl)pyridin-4-yl)-3-chloro-5′-fluoro-2′-hydroxy-[1,1′-biphenyl]-4-yl)-3-methyl-1H-imidazol-2(3H)-one]: the IC50 in assay [1] (setting [5]) fell in the range of 0.01 to 1 nM. The GI50 in assay [2] (setting [6]) was 0.3 to 30 nM.

In the case of `CC(=O)Nc1ccc(-c2cccc(-c3ccc(N4CCN(C)C4=O)c(Cl)c3)c2O)cc1N1CCNCC1` [Example 330, N-(3″-chloro-2′-hydroxy-4″-(3-methyl-2-oxoimidazolidin-1-yl)-3-(piperazin-1-yl)-[1,1′:3′,1″-terphenyl]-4-yl)acetamide], in assay [1] (setting [5]), the IC50 was in the range of 1 to 10 nM. Further, the GI50 in assay [2] (setting [6]) was 30 to 300 nM.

In the case of `Cn1ccn(-c2ccc(-c3cc(F)cc(-c4ccc(=O)n(C5CCNCC5)c4)c3O)cc2Cl)c1=O` [Example 486, 5-(3′-chloro-5-fluoro-2-hydroxy-4′-(3-methyl-2-oxo-2,3-dihydro-1H-imidazol-1-yl)-[1,1′-biphenyl]-3-yl)-1-(piperidin-4-yl)pyridin-2(1H)-one], in assay [1] (setting [5]), the half-inhibitory concentration (IC50) is 1 to 10 nM. The concentration for 50% growth inhibition (GI50) in assay [2] (setting [6]) is 30 to 300 nM.

In the case of `O=C1CCCN1c1ccc(-c2cccc(-c3ccnc(N4CCNCC4)c3)c2O)cc1F` [Example 238, 1-(3-fluoro-2′-hydroxy-3′-(2-(piperazin-1-yl)pyridin-4-yl)-[1,1′-biphenyl]-4-yl)pyrrolidin-2-one], the IC50 in assay [1] (setting [5]) lay within 1 to 10 nM. This compound came in with a GI50 in assay [2] (setting [6]) of 30 to 300 nM.
